Reference: PubChem BioAssay (NCI)
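Results reflect a 48-hour exposure of cells in 96-well plates to compound at five concentrations. The concentration for 50% growth inhibition is given as GI50. At the TGI there is no net growth.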

What was measured:
Assay in all cases: inhibition of tumour cell growth, NCI panel, 48 h
[1] = tested on: SK-MEL-28 melanoma
[2] = tested on: SN12C renal
[3] = tested on: KM12 colon
[4] = tested on: UO-31 renal
[5] = tested on: HCC-2998 colon
[6] = tested on: A498 renal
[7] = tested on: HOP-92 NSCLC
[8] = tested on: MOLT-4 leukemia
[9] = tested on: A549 NSCLC
[10] = tested on: OVCAR-4 ovarian
[11] = tested on: MDA-MB-231 breast
[12] = tested on: T-47D breast
[13] = tested on: ACHN renal
[14] = tested on: MDA-MB-435
[15] = tested on: K-562 leukemia
[16] = tested on: OVCAR-5 ovarian
[17] = tested on: SF-539 CNS
[18] = tested on: RPMI-8226 leukemia
[19] = tested on: SW-620 colon
[20] = tested on: SK-MEL-5 melanoma
[21] = tested on: NCI-H226 lung
[22] = tested on: NCI-H460 lung
[23] = tested on: SF-268 CNS
[24] = tested on: HOP-62 NSCLC
[25] = tested on: UACC-62 melanoma
[26] = tested on: NCI-H522 lung
[27] = tested on: COLO 205 colon
[28] = tested on: IGROV1 ovarian
[29] = tested on: OVCAR-3 ovarian
[30] = tested on: PC-3 prostate
[31] = tested on: CAKI-1 renal
[32] = tested on: EKVX NSCLC
[33] = tested on: NCI-H23 lung
[34] = tested on: MALME-3M melanoma
[35] = tested on: DU-145 prostate
[36] = tested on: RXF 393 renal
[37] = tested on: TK-10 renal
[38] = tested on: SNB-75 CNS
[39] = tested on: SR leukemia
[40] = tested on: HT29 colon
[41] = tested on: CCRF-CEM leukemia
[42] = tested on: SK-OV-3 ovarian
[43] = tested on: SNB-19 CNS
[44] = tested on: MCF7 breast
[45] = tested on: BT-549 breast
[46] = tested on: UACC-257 melanoma
[47] = tested on: HCT-116 colon
[48] = tested on: MDA-MB-468 breast
[49] = tested on: LOX IMVI melanoma
[50] = tested on: HCT-15 colon
[51] = tested on: SF-295 CNS
[52] = tested on: OVCAR-8 ovarian
[53] = tested on: U251 CNS
[54] = tested on: 786-0 renal
[55] = tested on: HL-60(TB) leukemia
[56] = tested on: SK-MEL-2 melanoma
[57] = tested on: NCI/ADR-RES ovarian
[58] = tested on: HS 578T breast
[59] = tested on: M14 melanoma

Structure (SMILES): COc1ccc(C(=O)/C=C/c2cc(C(F)(F)F)cc(C(F)(F)F)c2)cc1S(N)(=O)=O
- GI50 [1]: 1.67 µM
- TGI [1]: 3.07 µM
- GI50 [2]: 1.47 µM
- TGI [2]: 2.86 µM
- GI50 [3]: 2.07 µM
- TGI [3]: 4.92 µM
- GI50 [4]: 1.45 µM
- TGI [4]: 2.76 µM
- GI50 [5]: 1.54 µM
- TGI [5]: 2.87 µM
- GI50 [6]: 16.9 µM
- TGI [6]: 30.5 µM
- GI50 [7]: 1.98 µM
- TGI [7]: 5.8 µM
- GI50 [8]: 1.79 µM
- TGI [8]: 9.16 µM
- GI50 [9]: 1.83 µM
- TGI [9]: 5.64 µM
- GI50 [10]: 1.85 µM
- TGI [10]: 4.44 µM
- GI50 [11]: 1.57 µM
- TGI [11]: 3.11 µM
- GI50 [12]: 1.69 µM
- TGI [12]: 3.55 µM
- GI50 [13]: 1.54 µM
- TGI [13]: 2.91 µM
- GI50 [14]: 1.35 µM
- TGI [14]: 2.97 µM
- GI50 [15]: 0.788 µM
- TGI [15]: > 100 µM
- GI50 [16]: 1.84 µM
- TGI [16]: 3.36 µM
- GI50 [17]: 1.68 µM
- TGI [17]: 3.07 µM
- GI50 [18]: 0.558 µM
- TGI [18]: > 100 µM
- GI50 [19]: 1.03 µM
- TGI [19]: 2.44 µM
- GI50 [20]: 1.73 µM
- TGI [20]: 3.15 µM
- GI50 [21]: 2.14 µM
- TGI [21]: 4.59 µM
- GI50 [22]: 1.56 µM
- TGI [22]: 3.28 µM
- GI50 [23]: 2.38 µM
- TGI [23]: 7.48 µM
- GI50 [24]: 2.22 µM
- TGI [24]: 4.4 µM
- GI50 [25]: 1.51 µM
- TGI [25]: 3 µM
- GI50 [26]: 1.56 µM
- TGI [26]: 3.24 µM
- GI50 [27]: 2.02 µM
- TGI [27]: 3.94 µM
- GI50 [28]: 1.74 µM
- TGI [28]: 3.32 µM
- GI50 [29]: 1.56 µM
- TGI [29]: 3.31 µM
- GI50 [30]: 2.19 µM
- TGI [30]: 5.99 µM
- GI50 [31]: 1.58 µM
- TGI [31]: 3.36 µM
- GI50 [32]: 1.58 µM
- TGI [32]: 2.97 µM
- GI50 [33]: 1.55 µM
- TGI [33]: 3.01 µM
- GI50 [34]: 1.81 µM
- TGI [34]: 3.33 µM
- GI50 [35]: 2.05 µM
- TGI [35]: 4.83 µM
- GI50 [36]: 1.76 µM
- TGI [36]: 3.34 µM
- GI50 [37]: 2.05 µM
- TGI [37]: 3.86 µM
- GI50 [38]: 1.38 µM
- TGI [38]: 3.33 µM
- GI50 [39]: 0.498 µM
- TGI [39]: > 100 µM
- GI50 [40]: 1.26 µM
- TGI [40]: 2.77 µM
- GI50 [41]: 0.299 µM
- TGI [41]: > 100 µM
- GI50 [42]: 3.65 µM
- TGI [42]: 16.3 µM
- GI50 [43]: 1.6 µM
- TGI [43]: 2.98 µM
- GI50 [44]: 0.439 µM
- TGI [44]: 1.68 µM
- GI50 [45]: 2.27 µM
- TGI [45]: 3.93 µM
- GI50 [46]: 1.51 µM
- TGI [46]: 3.18 µM
- GI50 [47]: 0.655 µM
- TGI [47]: 2.3 µM
- GI50 [48]: 1.54 µM
- TGI [48]: 2.91 µM
- GI50 [49]: 0.573 µM
- TGI [49]: 1.78 µM
- GI50 [50]: 0.893 µM
- TGI [50]: 2.38 µM
- GI50 [51]: 1.7 µM
- TGI [51]: 3.1 µM
- GI50 [52]: 1.49 µM
- TGI [52]: 3.87 µM
- GI50 [53]: 1.29 µM
- TGI [53]: 2.62 µM
- GI50 [54]: 1.64 µM
- TGI [54]: 3.32 µM
- GI50 [55]: 1.75 µM
- TGI [55]: 6.29 µM
- GI50 [56]: 1.74 µM
- TGI [56]: 3.25 µM
- GI50 [57]: 1.51 µM
- TGI [57]: 3.72 µM
- GI50 [58]: 2.68 µM
- TGI [58]: 9.86 µM
- GI50 [59]: 1.92 µM
- TGI [59]: 4.85 µM
